Test results taken from PubChem BioAssay AID248 (DTP/NCI, 2004).
“And” between values parts separate entries of the source, which are not always exact repeats. Equal entries are not always repeated. Inconclusive results and toxic doses are left out. Cut-off read from the data, not from the text of the source: active = T/C of 150% or more; inactive = T/C below 125%.

Test system: L1210 leukemia ip in BDF1 mice, survival T/C
Assay: NCI In Vivo Anticancer Drug Screen. Data for tumor model L1210 Leukemia (intraperitoneal) in B6D2F1 (BDF1) mice
Conditions: higher = longer survival
In short: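 Survival endpoint. Drug-treated group vs vehicle group, expressed as T divided by C. Tumor passaged by transplantation.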

[1] = endpoint: mean survival time, dose: 100.0 mg/kg/injection, schedule: Q01DX009 (ip), vehicle: saline with Tween-80
[2] = endpoint: mean survival time, dose: 100.0 mg/kg/injection, schedule: Q04DX002 (ip), vehicle: saline with Tween-80
[3] = endpoint: mean survival time, dose: 200.0 mg/kg/injection, schedule: Q04DX002 (ip), vehicle: saline with Tween-80
[4] = endpoint: mean survival time, dose: 100.0 mg/kg/injection, schedule: Q04DX003 (ip), vehicle: saline with Tween-80
[5] = endpoint: mean survival time, dose: 100.0 mg/kg/injection, schedule: Q04DX003 (ip), vehicle: saline
[6] = endpoint: mean survival time, dose: 200.0 mg/kg/injection, schedule: Q04DX003 (ip), vehicle: saline with Tween-80
[7] = endpoint: mean survival time, dose: 200.0 mg/kg/injection, schedule: Q04DX003 (ip), vehicle: saline
[8] = endpoint: mean survival time, dose: 400.0 mg/kg/injection, schedule: Q04DX003 (ip), vehicle: saline with Tween-80
[9] = endpoint: mean survival time, dose: 400.0 mg/kg/injection, schedule: Q04DX003 (ip), vehicle: saline
[10] = endpoint: mean survival time, dose: 100.0 mg/kg/injection, schedule: Q01DX009 (ip), vehicle: Klucel (hydroxypropylcellulose) (HPC)
[11] = endpoint: mean survival time, dose: 200.0 mg/kg/injection, schedule: Q01DX009 (ip), vehicle: Klucel (hydroxypropylcellulose) (HPC)
[12] = endpoint: mean survival time, dose: 400.0 mg/kg/injection, schedule: Q01DX009 (ip), vehicle: Klucel (hydroxypropylcellulose) (HPC)
[13] = endpoint: mean survival time, dose: 50.0 mg/kg/injection, schedule: Q01DX009 (ip), vehicle: Klucel (hydroxypropylcellulose) (HPC)
[14] = endpoint: mean survival time, dose: 100.0 mg/kg/injection, schedule: Q04DX003 (ip), vehicle: Klucel (hydroxypropylcellulose) (HPC)
[15] = endpoint: mean survival time, dose: 200.0 mg/kg/injection, schedule: Q04DX003 (ip), vehicle: Klucel (hydroxypropylcellulose) (HPC)
[16] = endpoint: mean survival time, dose: 400.0 mg/kg/injection, schedule: Q04DX003 (ip), vehicle: Klucel (hydroxypropylcellulose) (HPC)
[17] = endpoint: mean survival time, dose: 50.0 mg/kg/injection, schedule: Q01DX009 (ip), vehicle: saline with Tween-80
[18] = endpoint: mean survival time, dose: 100.0 mg/kg/injection, schedule: Q01DX001 (ip), vehicle: saline
[19] = endpoint: mean survival time, dose: 200.0 mg/kg/injection, schedule: Q01DX001 (ip), vehicle: saline
[20] = endpoint: mean survival time, dose: 400.0 mg/kg/injection, schedule: Q01DX001 (ip), vehicle: saline

Measured: T/C

CCOc1ccc(-c2nnc(Nc3ccc(S(=O)(=O)N4CCCCC4)cc3)s2)cc1
inactive: [1] 87 % of control | [2] 96 % of control | [3] 93 % of control | endpoint: mean survival time, dose: 400.0 mg/kg/injection, schedule: Q04DX002 (ip), vehicle: saline with Tween-80 90 % of control

CCC(C(N)=O)N1C(=O)C2C3CCC(C3)C2C1=O (configuration not stated)
inactive: [4] 90 % of control | [5] 107 % of control | [6] 100 % of control | [7] 107 % of control | [8] 100 % of control | [9] 98 % of control

c1ccc(C2OC2(c2ccccc2)c2ccccc2)cc1 (configuration not stated)
inactive: [10] 95 % of control | [4] 101 % of control | [11] 102 % of control | [6] 92 % of control | [12] 102 % of control | [8] 95 % of control

NC1=NC(=O)C(c2ccccc2)O1 (configuration not stated)
inactive: endpoint: mean survival time, dose: 25.0 mg/kg/injection, schedule: Q01DX009 (ip), vehicle: Klucel (hydroxypropylcellulose) (HPC) 88 % of control | endpoint: mean survival time, dose: 25.0 mg/kg/injection, schedule: Q04DX003 (ip), vehicle: Klucel (hydroxypropylcellulose) (HPC) 92 % of control | [13] 94 % of control | endpoint: mean survival time, dose: 50.0 mg/kg/injection, schedule: Q04DX003 (ip), vehicle: Klucel (hydroxypropylcellulose) (HPC) 95 % of control | [10] 91 % of control | [14] 103 % of control | [11] 102 % of control | [15] 103 % of control | [16] 89 % of control

CCS(=O)(=O)/C=C(\C(=O)c1ccccc1)c1ccccc1
inactive: [10] 98 % of control | [11] 97 % of control | [12] 93 % of control

Cc1ccc(N=Nc2cc(C)c(N)cc2N)c(S(=O)(=O)O)c1
inactive: endpoint: mean survival time, dose: 100.0 mg/kg/injection, schedule: Q04DX003 (ip), vehicle: other 96 % of control | endpoint: mean survival time, dose: 200.0 mg/kg/injection, schedule: Q04DX003 (ip), vehicle: other 105 % of control | endpoint: mean survival time, dose: 400.0 mg/kg/injection, schedule: Q04DX003 (ip), vehicle: other 103 % of control

Nc1ccn(C2CC(O)C(CO)O2)c(=O)n1 (configuration not stated)
inactive: endpoint: median survival time, dose: 75.0 mg/kg/injection, schedule: Q01DX001 (ip), vehicle: other 100 % of control and 101 % of control | endpoint: median survival time, dose: 150.0 mg/kg/injection, schedule: Q01DX001 (ip), vehicle: other 99 % of control and 100 % of control

CCC(C)(C)C(=O)O
inactive: [17] 104 % of control | [1] 98 % of control | endpoint: mean survival time, dose: 200.0 mg/kg/injection, schedule: Q01DX009 (ip), vehicle: saline with Tween-80 98 % of control

CCCC(NC(=O)CN)C(=O)O (configuration not stated)
inactive: endpoint: mean survival time, dose: 50.0 mg/kg/injection, schedule: Q04DX002 (ip), vehicle: saline 96 % of control | endpoint: mean survival time, dose: 100.0 mg/kg/injection, schedule: Q04DX002 (ip), vehicle: saline 101 % of control | endpoint: mean survival time, dose: 200.0 mg/kg/injection, schedule: Q04DX002 (ip), vehicle: saline 96 % of control

CNc1ccc(C(=O)OC)cc1
inactive: [18] 100 % of control | [19] 100 % of control | [20] 103 % of control

Nc1cc([N+](=O)[O-])ccc1Cl
inactive: [10] 99 % of control | [14] 102 % of control | [11] 101 % of control | [15] 102 % of control | [16] 103 % of control

Cc1nc(=O)ccn1Cc1ccccc1
inactive: [5] 101 % of control | [7] 101 % of control | [9] 96 % of control

O=C(NNc1ccccc1)c1ccc(Cl)cc1
inactive: endpoint: mean survival time, dose: 100.0 mg/kg/injection, schedule: Q04DX002 (ip), vehicle: gum acacia 112 % of control | endpoint: mean survival time, dose: 200.0 mg/kg/injection, schedule: Q04DX002 (ip), vehicle: gum acacia 87 % of control | endpoint: mean survival time, dose: 400.0 mg/kg/injection, schedule: Q04DX002 (ip), vehicle: gum acacia 102 % of control

CC(C)(SCc1ccc([N+](=O)[O-])cc1)C(N)C(=O)O (configuration not stated)
inactive: [14] 101 % of control | [15] 100 % of control | [16] 91 % of control

CC/C(=N/N=C(N)N)C(=O)O
inactive: endpoint: mean survival time, dose: 15.0 mg/kg/injection, schedule: Q01DX Z (ip), vehicle: carboxymethylcellulose (CMC) 102 % of control | endpoint: mean survival time, dose: 30.0 mg/kg/injection, schedule: Q01DX Z (ip), vehicle: carboxymethylcellulose (CMC) 95 % of control | endpoint: mean survival time, dose: 60.0 mg/kg/injection, schedule: Q01DX Z (ip), vehicle: carboxymethylcellulose (CMC) 103 % of control and 106 % of control | endpoint: mean survival time, dose: 120.0 mg/kg/injection, schedule: Q01DX Z (ip), vehicle: carboxymethylcellulose (CMC) 96 % of control and 98 % of control | endpoint: mean survival time, dose: 240.0 mg/kg/injection, schedule: Q01DX Z (ip), vehicle: carboxymethylcellulose (CMC) 100 % of control | endpoint: mean survival time, dose: 480.0 mg/kg/injection, schedule: Q01DX Z (ip), vehicle: carboxymethylcellulose (CMC) 102 % of control

COc1cccc(/C=C/c2nccc3ccccc23)c1OC
inactive: [10] 90 % of control | [14] 106 % of control | [11] 91 % of control | [15] 98 % of control | [12] 91 % of control | [16] 90 % of control

COC(=O)/C=C(\C)Nc1ccc(C(C)=O)cc1
inactive: endpoint: mean survival time, dose: 100.0 mg/kg/injection, schedule: Q04DX003 (ip), vehicle: acetone 96 % of control | endpoint: mean survival time, dose: 200.0 mg/kg/injection, schedule: Q04DX003 (ip), vehicle: acetone 94 % of control | endpoint: mean survival time, dose: 400.0 mg/kg/injection, schedule: Q04DX003 (ip), vehicle: acetone 94 % of control

O=[N+]([O-])c1ccc(C(=Nc2ccccc2)Nc2ccccc2)cc1
inactive: [4] 101 % of control | [6] 98 % of control | [8] 98 % of control

CNC(=O)Oc1ccc(C=Nc2cccc([N+](=O)[O-])c2)cc1
inactive: [10] 101 % of control | [11] 95 % of control | [12] 100 % of control

CC(CN1CCN(C)CC1)CN1c2ccccc2Sc2ccc(C(F)(F)F)cc21 (configuration not stated)
inactive: endpoint: mean survival time, dose: 3.12 mg/kg/injection, schedule: Q01DX009 (ip), vehicle: saline 101 % of control | endpoint: mean survival time, dose: 6.25 mg/kg/injection, schedule: Q01DX009 (ip), vehicle: saline 106 % of control | endpoint: mean survival time, dose: 12.5 mg/kg/injection, schedule: Q01DX009 (ip), vehicle: saline 113 % of control | endpoint: mean survival time, dose: 25.0 mg/kg/injection, schedule: Q01DX009 (ip), vehicle: saline with Tween-80 111 % of control | endpoint: mean survival time, dose: 25.0 mg/kg/injection, schedule: Q01DX009 (ip), vehicle: saline 117 % of control | endpoint: mean survival time, dose: 25.0 mg/kg/injection, schedule: Q04DX003 (ip), vehicle: saline 101 % of control | [17] 111 % of control | endpoint: mean survival time, dose: 50.0 mg/kg/injection, schedule: Q01DX009 (ip), vehicle: saline 98 % of control | endpoint: mean survival time, dose: 50.0 mg/kg/injection, schedule: Q04DX003 (ip), vehicle: saline 113 % of control | [1] 96 % of control | [4] 107 % of control

O=c1[nH]c2ccccc2c(=O)o1
inactive: [18] 96 % of control | [19] 89 % of control | [20] 89 % of control

CCOC(=O)NC(=S)[S][Sb]([S]C(=S)NC(=O)OCC)[S]C(=S)Nc1ccc(S(=O)(=O)Nc2ccc(N=Nc3ccccc3)cc2)cc1
inactive: endpoint: mean survival time, dose: 100.0 mg/kg/injection, schedule: Q01DX001 (ip), vehicle: steriod suspending solution 103 % of control | endpoint: mean survival time, dose: 400.0 mg/kg/injection, schedule: Q01DX001 (ip), vehicle: steriod suspending solution 106 % of control

OCCCCCCCCCCCCO
inactive: [4] 105 % of control | [6] 94 % of control | [8] 103 % of control

Cc1ccc(NC(=O)ON(C)C)cc1
inactive: endpoint: mean survival time, dose: 25.0 mg/kg/injection, schedule: Q04DX002 (ip), vehicle: other 99 % of control | endpoint: mean survival time, dose: 50.0 mg/kg/injection, schedule: Q04DX002 (ip), vehicle: other 96 % of control | endpoint: mean survival time, dose: 100.0 mg/kg/injection, schedule: Q04DX002 (ip), vehicle: other 92 % of control

C#CCCCOC(=O)Nc1ccccc1
inactive: [13] 97 % of control | [10] 103 % of control | [11] 89 % of control

CC(O)CN1c2ccccc2Sc2ccc(Cl)cc21 (configuration not stated)
inactive: endpoint: mean survival time, dose: 100.0 mg/kg/injection, schedule: Q01DX001 (ip), vehicle: carboxymethylcellulose (CMC) 97 % of control | endpoint: mean survival time, dose: 200.0 mg/kg/injection, schedule: Q01DX001 (ip), vehicle: carboxymethylcellulose (CMC) 92 % of control | endpoint: mean survival time, dose: 400.0 mg/kg/injection, schedule: Q01DX001 (ip), vehicle: carboxymethylcellulose (CMC) 95 % of control

CCOC(CCl)(OCC)OCC
inactive: [2] 97 % of control | [3] 90 % of control

CCCCSP(=S)(Cc1ccccc1)SCCCC
inactive: [14] 95 % of control | [15] 93 % of control

C1CN(CSCN2CCOCC2)CCO1
inactive: [5] 106 % of control | [7] 97 % of control | [9] 97 % of control
